Measurements reported in US20110093959A1, “CRYPTOTIS PARVA SCREENING MODEL FOR ANTIEMETIC POTENTIAL” (priority 2008, published 2011).

What was measured:
[1] = system: substance P tissue levels; test: Substance P tissue levels after CIS (EIA); format: in vivo, Cryptotis parva
Protocol: These parameters were used in our neurochemical studies. Prior to experimentation, shrews were habituated to the laboratory environment as described for the behavioral studies. […] Subgroups of each treatment were sacrificed by rapid decapitation at either 2 hr or 33 hr post-injection.
Preliminary sample preparation procedures were carried out to optimize detection conditions in accord with our published methods (Darmani et al., 2008). […] As proteases can be also deactivated by heat, at basic pH and in the presence of EDTA (Darmani et al., 2008), the entire intestine was immediately immersed in a 70° C. preheated for 5 min, 5 ml solution of normal saline containing […] EDTA at pH 8.0 in accordance to published methods (Darmani et al., 2008). Each sample was allowed to cool down naturally to room temperature and then each gut was thrice flushed and rinsed with 5 ml of the cited saline solution. Then, each gut was dissected and the duodenum and jejunum samples were placed separately in test tubes containing 1 ml assay buffer. The dissected frontal cortex and brainstem samples were placed in different test tubes containing 0.5 ml assay buffer. Each sample was homogenized using a tissue tearer (Biospec) set at level 5 for 15 sec. The homogenates were then centrifuged at 17,000×g for 15 min at 4° C. The supernatants were obtained and saved at […] until used for the EIA detection of SP. Samples were analyzed for SP using the “Correlate-EIA” kit from Assay Designs using a microplate reader.
When a significant dose and exposure interaction was found, then simple effects at a particular emesis phase was tested via a one-way ANOVA. Neurochemical data were initially analyzed by two-way analysis of variance (ANOVA) with drug dose (0 mg/kg and 10 mg/kg) and exposure time (2 hr and 33 hr) as factors. […] For each statistical test, a P value of<0.05 was necessary to achieve statistical significance.

Fos = Fos expression in the dorsal vagal complex resulting from CIS-induced vomiting; format: in vivo, Cryptotis parva; details: CIS 10 mg/kg i.p.; vs vehicle in place of CIS
Protocol: After the appropriate time period for acute or delayed phase vomiting, shrews were anesthetized with a lethal dose of pentobarbital (100 mg/kg) and perfused transcardially via blunted needle with a peristaltic pump. The shrew was perfused with ice cold 4% paraformaldehyde and 5% picric acid in pH 7.4, 0.1 M phosphate buffer (10 min). Brains were removed and stored in 30% sucrose in 0.1 M PB overnight, then embedded in blocks of 12% gelatin in 30% sucrose/PB. The blocks were postfixed for 3 hr in 2% paraformaldehyde/PB, then rinsed and immersed in 30% sucrose/PB until they sank (usually 1-2 hr). The brain block was cut sagittally on a freezing benchtop microtome (Leica) at 30 μm into 5 series, and stored in PB with 0.03% sodium azide.
Immunolabeling was accomplished by blocking a free-floating series with 10% normal horse serum (NHS) and 3% hydrogen peroxide in PB with 0.3% Tri-ton X-100 (TX) for 30 min. After rinsing in PB, tissue was put in sheep anti-Fos polyclonal antibody (Chemicon/Millipore, Temecula, Calif.; 1:600), with 5% NHS and 0.3% TX in PB, and incubated for about 42 hr at room temperature (RT) with gentle shaking. After rinsing in PB, the tissue was placed in biotinylated donkey anti-sheep IgG secondary antibody (Jackson Immunoresearch, West Grove, Pa.; 1:600) diluted in the same diluent described for the primary antibody, and the tissue incubated at RT with shaking for 75 min Tissue was then rinsed and incubated for 60 min in HRP-conjugated avidin-biotin complex (Vector Labs, Burlingame, Calif.; Vectastain kit diluted 1:2) in PB. Tissue was then rinsed twice in PB, then once in imidazole-acetate buffer (0.1 M, pH 7.4), then reacted for 6 min in 0.0006% hydrogen peroxide with 2% nickel ammonium sulfate-enhanced diaminobenzidine (DAB, 0.05% in 0.1 M imidazole-acetate buffer). All reagents for DAB processing were purchased from Sigma-Aldrich. […]

[2] = CIS 10 mg/kg, 2 hour (immediate phase)
[3] = CIS 10 mg/kg, 33 hour (delayed phase)

SMILES: N.N.[Cl][Pt][Cl] [CIS, cis-platinum(II)diamine dichloride]
- duodenal SP tissue levels ([1]; CIS 10 mg/kg, 2 and 33 hour): failed to exhibit a significant effect
- frontal cortex SP tissue levels vs vehicle ([1]; CIS 10 mg/kg, 2 hour): no significant difference
- increase in brainstem SP levels vs vehicle [1, 2]: 1396%
- increase in jejunal SP levels vs vehicle [1, 2]: 333%
- decrease in frontal cortex SP levels vs vehicle ([1]; CIS 10 mg/kg, 33 hour): 39.2%
- increase in brainstem SP levels vs vehicle [1, 3]: 956%
- increase in jejunal SP levels vs vehicle [1, 3]: 226.5%
- brainstem mean SP level lower at 33 hour than at 2 hour ([1]; CIS groups): 100%
- Fos-IR in the DVC after CIS-induced vomiting (Fos): numerous Fos-IR nuclei
